In patent publication US20190209585A1, “COMBINATION THERAPY COMPRISING A POLYUNSATURATED KETONE AND A SECOSTEROID” (Avexxin AS, priority 2016, published 2019):
“Also recorded” adds a separate entry of the source.

Key:
[1] = system: HaCaT cells; assay: Resazurin assay of HaCaT keratinocyte cell proliferation and viability
Protocol: (§1) The spontaneously immortalized, nontumorigenic skin keratinocyte cell line HaCaT was maintained in DMEM supplemented with 5% (v/v) FBS, 0.3 mg/ml glutamine and 0.1 mg/ml gentamicin at 37° C. with 5% CO2 in a humidified atmosphere. Subculture using trypsin-EDTA was performed every 3-4 days with split ratio of 1:3-1:4 to ensure actively proliferating cells.
(§2) Cells were seeded in 96 well plates in fully supplemented medium at a density of 2500 cells per well. Following 72 hours of cultivation, the cells were starved of serum in 0.25% FBS/DMEM overnight to halt proliferation, synchronize and to increase cell sensitivity to treatment. On day 4, the cells were treated with cPLA2α inhibitor Compound A and vitamin D analogue Calcipotriol hydrate (Sigma Aldrich #C4369) and left to incubate for […] in incubator at 37° C. with 5% CO2 in a humidified atmosphere before fluorescence was read at 544 nm excitation and 590 nm emission wavelength. The cells were observed under the microscope to evaluate possible morphology changes and signs of stress before addition of resazurin. The experiments were performed in series of 8 wells per treatment and repeated 2-3 times.
as §2, with “hour” for “hours”, “synchronize the cells” for “synchronize”, “corticosteroid Betamethasone 17, 21-dipropionate (Sigma Aldrich #B1152)” for “cPLA2α inhibitor Compound A”, “#C4369) for 24 hours. On day 5, resazurin was added according to the manufacturer's instruction (RnD Systems, UK)” for “#C4369)”
as §2, with “3000” for “2500”, “48-72 hour” for “72 hours”, “synchronize the cells” for “synchronize”, “Next day,” for “On day 4,”, “compound” for “cPLA2α inhibitor Compound”, “or calcipotriol for 24 hours. Resazurin was added next day according to the manufacturer's instruction (RnD Systems, UK)” for “and vitamin D analogue Calcipotriol hydrate (Sigma Aldrich #C4369)”
as §1, with “1:4” for “1:3-1:4”
Cells were seeded in 96 well plates in fully supplemented medium at a density of 3000 cells per well. Following 72 hour of cultivation, the cells were starved of serum in 0.25% FBS/DMEM overnight to halt proliferation, synchronize the cells and to increase cell sensitivity to treatment. Next day, the cells were treated with Compound A, vitamin D analogue Calcipotriol and corticosteroid hormone receptor agonist Betamethasone dipropionate for 24 hours.

[2] = system: PGE2 production in PBMC challenged with LPS; assay: PGE2 enzyme immunoassay of supernatants of PBMC challenged with LPS; format: cell-based, human
Protocol: Blood from healthy, consenting blood donors was collected at St. Olays Hospital HF, Trondheim, Norway.
From each donor, 2×6 ml heparin tubes with blood were used. Peripheral blood mononuclear cells (PBMC) were isolated using 50 mL SepMate™ tubes ([…]™ Technology, UK) and Lymphoprep™ (Fresenius Kabi, N) density gradient according to the manufacturers instructions.
PBMC were resuspended in RPMI-1640 cell culture medium complemented with 5% heat-inactivated fetal bovine serum (FBS), 0.03% glutamine, 0.01 mg/mL gentamicin and 3.4 ppm β-mercaptoethanol (all reagents from Sigma-Aldrich). […]
PGE2 enzyme immunoassay analysis of PBMC supernatants was performed according to the kit protocol (Cayman Chemicals, #514010, USA). […] The plate was read at OD 420 nm using a Cytation 5 imaging reader from BioTek and data acquired with the corresponding software Gen5 2.09. A four-parameter logistic model was fit to the absorbance data to determine PGE2 levels using the Cayman PGE2 protocol. […]
Accordingly, we isolated peripheral blood mononuclear cells, treated them with various doses and combinations of Compound A and calcipotriol and finally added LPS as a trigger to mount a broad inflammatory response. The cell supernatants collected following 72 hrs of LPS stimulation were next analyzed with respect to levels of PGE2, a key proinflammatory mediator close to the cPLA2α target.

In the case of `C=C1/C(=C\C=C2/CCC[C@]3(C)[C@@H]([C@H](C)/C=C/[C@@H](O)C4CC4)CC[C@@H]23)C[C@@H](O)C[C@@H]1O` [Calcipotriol], the “effect on proliferation and viability of HaCaT cells” value ([1]; Example 1, 10 μM, alone) is reported as “little or no effect”, the “effect on HaCaT cell viability” value ([1]; Example 3/4, 24 hours, 15 μM, alone) is reported as “affect cell viability; also recorded: reduced cell viability” and the “effect on HaCaT cell viability” value ([1]; Example 3, 24 hours, doses 1-10 μM, alone) is reported as “no signs of impairment in cell viability”. The “effect on HaCaT cell viability” value ([1]; Example 4, 10 μM, alone) was “no signs of impairment in cell viability”, the cytotoxicity at 10 µM ([1]; Homo sapiens, HaCaT, 24 h, read-out: reduction of cell proliferation and viability) was 20% and the “increase of PGE2” value ([2]; calcipotriol 0.5 μM alone) was 18%. The “effect on PGE2 levels” value ([2]; high doses of calcipotriol alone (<0.5 μM)) was “PGE2 levels increased”.

In the case of `CCC(=O)OCC(=O)[C@@]1(OC(=O)CC)[C@@H](C)C[C@H]2[C@@H]3CCC4=CC(=O)C=C[C@]4(C)[C@@]3(F)[C@@H](O)C[C@@]21C` [Betamethasone, Betamethasone 17, 21-dipropionate], the “reduction of cell proliferation and viability” value ([1]; Example 2, 24 hours, 50 μM Betamethasone alone) is reported as 10%.
